Consider ten compounds from BindingDB's records for doi:10.1124/jpet.102.039867 (Institut De Recherches Servier, 2002).

Bounds are passed on as bounds.

This assay deals with T1, Alpha-2C adrenergic receptor (Homo sapiens, UniProt P18825).
T1 sequence (P18825 whole entry): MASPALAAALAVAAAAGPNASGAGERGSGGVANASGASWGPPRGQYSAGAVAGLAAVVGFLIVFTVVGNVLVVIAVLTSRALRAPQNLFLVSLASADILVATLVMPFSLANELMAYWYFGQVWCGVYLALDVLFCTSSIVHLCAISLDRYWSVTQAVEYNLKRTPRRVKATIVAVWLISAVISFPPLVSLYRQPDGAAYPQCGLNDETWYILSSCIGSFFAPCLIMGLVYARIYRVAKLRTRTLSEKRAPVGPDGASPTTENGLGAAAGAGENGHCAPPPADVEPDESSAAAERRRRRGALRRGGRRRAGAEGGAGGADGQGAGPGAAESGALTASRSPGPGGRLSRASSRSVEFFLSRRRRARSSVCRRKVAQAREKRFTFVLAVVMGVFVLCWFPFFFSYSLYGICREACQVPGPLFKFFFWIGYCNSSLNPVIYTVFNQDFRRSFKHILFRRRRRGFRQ
`Oc1ccc2[nH]cc(CCCCN3CC=C(c4ccccc4)CC3)c2c1` gave a Ki of 1.78 nM.

In turn, `CCCN1CCC[C@@H]2Cc3nc(N)ncc3C[C@H]21` [Quinerolane] came in with a Ki of over 10000 nM.

`CCN(CC)C(=O)N[C@H]1C[C@@H]2c3cccc4[nH]cc(c34)C[C@H]2N(C)C1` yielded a Ki of 0.76 nM.

For `C=CCN1CC(C(=O)N(CCCN(C)C)C(=O)NCC)CC2c3cccc4[nH]cc(c34)CC21` (stereo not given) [NSC_54746], the Ki stood at 22.4 nM.

Consider `CN(C)C1CCc2cc(O)c(O)cc2C1` (stereo not given) [(6,7-Dihydroxy-1,2,3,4-tetrahydro-naphthalen-2-yl)-dimethyl-ammonium], for which the affinity corresponds to a Ki of 6.03 nM.

In turn, `CCCN1C[C@H](CSC)C[C@@H]2c3cccc4[nH]cc(c34)C[C@H]21` [Permax] yielded a Ki of 67.6 nM.

With `CCCNC1CCc2nc(N)sc2C1` (stereo not given) [Pramipexole], the Ki is over 10000 nM.

Compound `CCCN(CCC)CCc1cccc2c1CC(=O)N2` showed a Ki of 1200 nM. In other words, the single-digit micromolar range.

Turning to `C=CCN1CCc2nc(N)sc2CC1` [B-HT 920], the affinity corresponds to a Ki of 42.7 nM. Compared with the last compound, the Ki is about 28-fold lower.

`CN1CCc2cccc3c2[C@H]1Cc1ccc(O)c(O)c1-3` [APOKYN] gave a Ki of 36.3 nM.

What is called Ki is the dissociation constant of the complex between target and ligand, obtained from inhibition or displacement. Low values mean a stronger hold on the target, high ones a looser hold on the target.
